Assay results from patent publication US20090318376A1, “High Throughput Screening Method of Binding Inhibitor Between caspase3 and XIAP and Binding Inhibitor Screened Thereby” (Korea Research Institute of Bioscience and Biotechnology, priority 2006, published 2009).

Assays:
[1] = biological target: T1, binding between caspase3 and xIAP (Homo sapiens, UniProt P98170); assay: protein chip (CI-chip) SPR imaging screening of inhibitors of interaction between caspase3 and xIAP; conditions: within the range from 50 to 400 μM; FIG. 3
T1 construct: made in house; host or cells: E. coli BL21
T1 sequence (P98170 whole entry): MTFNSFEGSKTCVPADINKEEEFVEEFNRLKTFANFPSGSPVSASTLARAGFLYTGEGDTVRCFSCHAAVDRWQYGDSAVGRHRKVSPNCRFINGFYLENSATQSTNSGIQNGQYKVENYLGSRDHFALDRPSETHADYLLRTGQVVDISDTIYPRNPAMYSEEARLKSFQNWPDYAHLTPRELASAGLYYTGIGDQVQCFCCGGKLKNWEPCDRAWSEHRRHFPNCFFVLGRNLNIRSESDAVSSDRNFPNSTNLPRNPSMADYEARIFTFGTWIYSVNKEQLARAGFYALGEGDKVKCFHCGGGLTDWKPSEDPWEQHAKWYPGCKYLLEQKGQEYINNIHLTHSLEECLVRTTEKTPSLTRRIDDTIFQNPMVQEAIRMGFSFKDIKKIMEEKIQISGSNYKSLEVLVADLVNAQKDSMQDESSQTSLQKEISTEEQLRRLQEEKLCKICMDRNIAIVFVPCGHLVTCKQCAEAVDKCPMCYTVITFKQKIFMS
Excerpt: Whether the obtained proteins bind to the gold chip having L-glutathione on the surface thereof, was pre-experimented. After a bacteria cell extract containing 20% glycerol, in which GST-tag-fused cas3 (29) obtained in Example 1-1 has been over-expressed, was dispersed in 384 microwell plate, it was spotted on the gold chip having L-glutathione on the surface thereof with a pin having a diameter of 335 μm under a constant humidity of 75% using automatic robotic arrayer(proteogen, CM-1000), and then subjected to RT shaking incubation for 3 hours, thus constructing Cl-chip having gold chip as a substrate.
Inhibitors of interaction between caspase3 and xIAP were screened using the protein chip based on the gold chip prepared in example 1. 920 microorganism-derived samples, which was purely isolated or partially purified, were reacted with 15 μl solution (3.75 μl of more than 50% glycerol; 3 μl of material dissolved in DMSO at a concentration of less than 10 mg/ml; 7.5 μl of xIAP dissolved in PBS at a concentration of more than 1 mg/ml; 0.75 μl of PBS buffer) at 4° C. for 2 hours to apply to the protein chip. Inhibitory activity was analyzed using SPR imaging as the concentration of protein in solution was increased (FIG. 3).

[2] = biological target: T2, binding of caspase3 and xIAP (Homo sapiens, UniProt P98170); assay: pull down assay using tagged MBP; conditions: chromomycin increased from 50 μM to 200 μM; MBP resin, SDS PAGE; FIG. 4
T2 construct: made in house; host or cells: E. coli BL21
T2 sequence (P98170 whole entry): as above
Experimental: In order to examine whether chromomycin, screened in the example 2, is activated by the reaction of caspase3 and xIAP, pull down assay using tagged MBP (Maltose Binding Protein) was performed. After xIAP and chromomyicin were added to MBP resin and allowed to react on ice for 2 hours, the resulting mixture was added with caspase3 and allowed to react for about 3 hours, and then washed with PBS buffer solution to load onto 10% SDS PAGE, thus examining the reactant (FIG. 4).

[3] = test system: breast cancer cell line MDA-MB-231; assay: inhibition of proliferation of cancer cell lines (WST-8); assay type: cell-based; conditions: Homo sapiens, WST-8, over 24 hours treatment, read-out: IC 50 (proliferation)
Experimental: (§1) To examine inhibition of proliferation of the cell lines, the cancer cell lines HCT 116 (Mecoy's 5A medium), SW620 (RPMI 1640) and MDA-MB-231 (RPMI 1640) were cultured to disperse in a 96 well plate. SW620 and HCT116 were innoculated at a concentration of 7,000 cells/100 μl, and MDA-MB-231 was innoculated at a concentration of 5,000 cells/100 μl, respectively, and cultured overnight, followed by an additional reaction of over 24 hours after treating with 1 μl chromomycin prepared according to the concentration. Next, the resulting cells were added with 10 μl of WST-8, counted with an ELISA reader at 450 nm after 2 hours and calculated as a percentage of comparative control added only with DMSO. Inhibitory concentration (IC50), with respect to proliferation of cell lines MDA-MB -231, HCT116, SW620, was measured within the concentration range from 0 to 1 µg/ml by dissolving chromomycin in DMSO (Table 1).

[4] = test system: colorectal cancer cell line HCT116; assay: as above; assay type: cell-based; conditions: Homo sapiens, HCT-116, WST-8, over 24 hours treatment, read-out: IC 50 (proliferation)
Experimental: as §1

[5] = test system: colorectal cancer cell line SW620; assay: as above; assay type: cell-based; conditions: Homo sapiens, SW-620, WST-8, over 24 hours treatment, read-out: IC 50 (proliferation)
Experimental: as §1

**Q.** How did the “inhibition reaction in the protein chip (SPR imaging)” value [1] turn out when `COC1C(O)CC(OC2CC(Oc3cc4cc5c(c(O)c4c(O)c3C)C(=O)[C@@H](OC3CC(OC4CC(OC6CC(C)(O)C(OC(C)=O)C(C)O6)C(O)C(C)O4)C(O)C(C)O3)[C@H]([C@H](OC)C(=O)[C@@H](O)[C@@H](C)O)C5)OC(C)C2OC(C)=O)OC1C` (some centres unmarked) [Chromomycin] was run?
**A.** constant inhibition reaction concentration-dependently

**Q.** And the “resulting reactant of xIAP (MX) and caspase3 (Cas3) in pull down assay” value [2]?
**A.** reduced

**Q.** And the IC50 [3]?
**A.** 8.4 nM

**Q.** What about the IC50 [4] of the same molecule?
**A.** 6.7 nM

**Q.** And the IC50 [5]?
**A.** 80 nM
